Laboratory results: patent US20210100869A1, “COMPOSITIONS AND METHODS OF USING SAME FOR TREATING AMYOTROPHIC LATERAL SCLEROSIS (ALS)” (Immunity Pharma Ltd., priority 2018, published 2021)
Residues, ends and D or L forms follow the SMILES beside them.

Columns and labels:
ALS patients [1] = details: estimated moderate effect; cited from earlier work
ALS patients [2] = assay: Open-label Phase 1/2a clinical trial, safety and tolerability (adverse events); format: in vivo, human; details: eight patients, IV daily, 1.7 mg/kg escalated to 3.2 mg/kg
Procedure: Dose-limiting Toxicity (DLT): DLT is defined as a ≥Grade 3 per subject which is IPL344 drug-related adverse event (using CTCAE Version v.4.03) occurring at any dosing, excluding: • Grade 3 adverse event of hypersensitivity (defined as sinus tachycardia, heavy breathing or rash along the veins or elsewhere) • A transient (resolving within 6 hours of onset) Grade 3 study drug-related adverse event.
Adverse events (AE)—The FDA defines an AE as “any untoward medical occurrence associated with the use of a drug in humans, whether or not considered drug related” (US Department of Health and Human Services, December 2012). Medical conditions present before first administration of IPL344 are considered pre-existing conditions and are documented as medical history. A new condition, event or the worsening of a pre-existing condition is considered an AE from the first dose of administration.
AEs are coded by CTCAE Version v4.03.
Safety Analysis: The Safety population is based on participants having received at least one dose of IPL-344 (exposed population), including participants prematurely withdrawn. AEs are classified by system-organ class and preferred term and then summarized by number and percentage of participants experiencing AEs. […] The IPL344 DLT and maximal tolerated dose (MTD) are assessed and presented. […]

Structure (SMILES): CC1=NN(c2ccccc2)C(=O)C1 [edaravone]
- Extension in patient survival (ALS patients [1]): three months extension in patient survival

Structure (SMILES): CC(C)C[C@H](NC(=O)[C@@H]1CCCN1C(=O)[C@@H]1CCCN1C(=O)[C@@H](N)CC(C)C)C(=O)N1CCC[C@H]1C(=O)N[C@@H](Cc1ccc(O)cc1)C(=O)N1CCC[C@H]1C(=O)O [IPL344, LPPLPYP] (H-LPPLPYP-OH)
- Safety and tolerability profile (ALS patients [2]; 28 days safety study): favorable safety and tolerability profile
- Drug-related adverse events (ALS patients [2]): No drug-related adverse events
